From US20190100557A1, “PRO[…], A GENE TRANSFER ENHANCER” (Pharis Biotec GmbH, priority 2013, published 2019)
Non-standard residues stand in square brackets, D forms with d. Residues, ends and D or L forms follow the SMILES beside them. pGlu = O=C1CC[C@@H](C(=O)O)N1

Columns and labels:
[1] = Storage stability in aqueous solution followed by HPLC (FIG. 1); assay type: physicochemical; conditions: storage at 4° C. for 13 days, in vitro
Procedure: FIG. 1 is a high pressure liquid chromatography (HPLC) chromatogram of protransduzin A and protransduzin B.
In the left column of FIG. 1 (HPLC chromatogram), results for protransduzin A upon storage for 0-13 days at −20° C. and at 4° C. (13 days) are compared with the results for protransduzin B under the same conditions.

[2] = system: cells; assay: Transduction of cells with protransduzin B (vectors preincubated with peptide fibrils); assay type: cell-based; conditions: protransduzin B 25 μg/ml added to vectors, cells incubated 2 days
Procedure: Dissolve 0.5 mg of protransduzin B in 50 μl of DMSO. Then add 450 μl of PBS to the solution, fibrils forming within 3 min. Add this stock solution (1 mg/ml) to the vectors to obtain a concentration of protransduzin B of 25 μg/ml. Vortex the solution for 1 min, then centrifuge with 5000 g for 5 min. The supernatant is discarded, and the pellet is suspended in a little PBS and added to the cells. The cells are incubated in an incubator for 2 days.

**Q.** What does the source list for `CC[C@H](C)[C@H](NC(=O)[C@H](CCCCN)NC(=O)[C@H](CS)NC(=O)[C@@H]1CCC(=O)N1)C(=O)N[C@@H](CCCCN)C(=O)N[C@@H](CCC(N)=O)C(=O)N[C@H](C(=O)N[C@H](C(=O)N[C@@H](CC(N)=O)C(=O)N[C@@H](CCSC)C(=O)N[C@@H](Cc1c[nH]c2ccccc12)C(=O)N[C@@H](CCC(N)=O)C(=O)O)[C@@H](C)CC)[C@@H](C)CC` [protransduzin B] ([pGlu]CKIKQIINMWQ-OH)?
**A.** degradation upon storage (HPLC peak height) [1]: hardly degraded at all; cells transduced [2]: Up to 96%; transduction rate [2]: significantly enhanced
